Data published in PubChem BioAssay (NCI).
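Tested at 5 concentrations; 48 h exposure; 96-well plates; endpoints linearly interpolated, else capped at highest concentration. TGI is the concentration that stops growth completely.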

Key:
Assay in all cases: DTP human tumour cell line panel, 48 h
[1] = tested on: 786-0 renal
[2] = tested on: A498 renal
[3] = tested on: A549 NSCLC
[4] = tested on: ACHN renal
[5] = tested on: BT-549 breast
[6] = tested on: CAKI-1 renal
[7] = tested on: CCRF-CEM leukemia
[8] = tested on: COLO 205 colon
[9] = tested on: DU-145 prostate
[10] = tested on: EKVX NSCLC
[11] = tested on: HCC-2998 colon
[12] = tested on: HCT-116 colon
[13] = tested on: HCT-15 colon
[14] = tested on: HL-60(TB) leukemia
[15] = tested on: HOP-92 NSCLC
[16] = tested on: HS 578T breast
[17] = tested on: HT29 colon
[18] = tested on: IGROV1 ovarian
[19] = tested on: K-562 leukemia
[20] = tested on: KM12 colon
[21] = tested on: LOX IMVI melanoma
[22] = tested on: M14 melanoma
[23] = tested on: MALME-3M melanoma
[24] = tested on: MCF7 breast
[25] = tested on: MDA-MB-231 breast
[26] = tested on: MDA-MB-435
[27] = tested on: MDA-N
[28] = tested on: MOLT-4 leukemia
[29] = tested on: NCI-H226 lung
[30] = tested on: NCI-H23 lung
[31] = tested on: NCI-H460 lung
[32] = tested on: NCI-H522 lung
[33] = tested on: NCI/ADR-RES ovarian
[34] = tested on: OVCAR-4 ovarian
[35] = tested on: OVCAR-5 ovarian
[36] = tested on: OVCAR-8 ovarian
[37] = tested on: PC-3 prostate
[38] = tested on: RPMI-8226 leukemia
[39] = tested on: RXF 393 renal
[40] = tested on: SF-268 CNS
[41] = tested on: SF-539 CNS
[42] = tested on: SK-MEL-2 melanoma
[43] = tested on: SK-MEL-28 melanoma
[44] = tested on: SK-MEL-5 melanoma
[45] = tested on: SN12C renal
[46] = tested on: SNB-19 CNS
[47] = tested on: SNB-75 CNS
[48] = tested on: SR leukemia
[49] = tested on: SW-620 colon
[50] = tested on: T-47D breast
[51] = tested on: TK-10 renal
[52] = tested on: U251 CNS
[53] = tested on: UACC-257 melanoma
[54] = tested on: UACC-62 melanoma
[55] = tested on: UO-31 renal

SMILES: COc1cccc(/C=C/C2=NN(c3cccc(S(=O)(=O)O)c3)C3(C2)SCC(=O)N3c2nc3ccccc3s2)c1 (stereo not given)
- TGI [1]: 43.1 µM
- TGI [2]: > 100 µM
- TGI [3]: > 100 µM
- TGI [4]: > 100 µM
- TGI [5]: > 100 µM
- TGI [6]: > 100 µM
- TGI [7]: 88.3 µM
- TGI [8]: > 100 µM
- TGI [9]: 93.1 µM
- TGI [10]: > 100 µM
- TGI [11]: > 100 µM
- TGI [12]: > 100 µM
- TGI [13]: > 100 µM
- TGI [14]: > 100 µM
- TGI [15]: > 100 µM
- TGI [16]: > 100 µM
- TGI [17]: > 100 µM
- TGI [18]: > 100 µM
- TGI [19]: > 100 µM
- TGI [20]: > 100 µM
- TGI [21]: 40.5 µM
- TGI [22]: > 100 µM
- TGI [23]: > 100 µM
- TGI [24]: > 100 µM
- TGI [25]: > 100 µM
- TGI [26]: 66.6 µM
- TGI [27]: > 100 µM
- TGI [28]: 81.3 µM
- TGI [29]: > 100 µM
- TGI [30]: > 100 µM
- TGI [31]: > 100 µM
- TGI [32]: 28.4 µM
- TGI [33]: > 100 µM
- TGI [34]: > 100 µM
- TGI [35]: > 100 µM
- TGI [36]: > 100 µM
- TGI [37]: > 100 µM
- TGI [38]: 52.4 µM
- TGI [39]: > 100 µM
- TGI [40]: > 100 µM
- TGI [41]: 37.4 µM
- TGI [42]: > 100 µM
- TGI [43]: > 100 µM
- TGI [44]: > 100 µM
- TGI [45]: > 100 µM
- TGI [46]: > 100 µM
- TGI [47]: > 100 µM
- TGI [48]: 62.9 µM
- TGI [49]: > 100 µM
- TGI [50]: 52.8 µM
- TGI [51]: 81.1 µM
- TGI [52]: > 100 µM
- TGI [53]: > 100 µM
- TGI [54]: > 100 µM
- TGI [55]: > 100 µM
